Among the test systems are SF-295; SNB-19; MDA-MB-435; HCT-116; HL-60; OVCAR-8; OVCAR-4; SNB-75; UACC-257; PC-3; A549; LOX IMVI; HT-29; MOLT-4; U-251; OVCAR-3; IGROV-1; EKVX; SK-MEL-2; SW-620.
What all share (assay): inhibition of tumour cell growth, NCI panel, 48 h

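Five compound concentrations were applied to cells in 96-well plates for 48 hours; endpoints were derived by simple linear interpolation of the resulting dose-response curve. GI50 = concentration required for 50% inhibition of growth.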 The source made the active and inactive calls. No stated cut-off is given here; in the data, active = GI50 up to about 1.1 µM and inactive = higher. Some results are limits rather than exact numbers.

Turning to `O=c1[nH]c(=O)n(C2CC(O)C(CO)O2)cc1OCCc1ccccc1` (stereo not given), the GI50 in the test on SF-295, with SNB-19, in the test on MDA-MB-435, in the test on HCT-116, in the test on HL-60 and with OVCAR-8 was > 100 µM (inactive) throughout. Also, the GI50 with OVCAR-4, in the test on SNB-75, with UACC-257, in the test with PC-3, in the test with A549 and in the test on LOX IMVI was > 100 µM (inactive) in each case. For the same molecule, the GI50 in the test with HT-29, in the test with MOLT-4, in the test with U-251, in the test on OVCAR-3, in the test with IGROV-1 and with EKVX was > 100 µM (inactive) each time.

On to `O=[N+]([O-])/C(C(Cl)=C(Cl)Cl)=C(/Sc1ccccc1)N1CCOCC1`, for which the GI50 with SF-295 is 19.5 µM (inactive); in the test on SNB-19 it was 6.75 µM (inactive); in the test with MDA-MB-435, 2.59 µM (inactive); with HCT-116, 1.67 µM (inactive); in the test on HL-60, 1.99 µM (inactive); in the test with OVCAR-8 it was 1.89 µM (inactive). For the same molecule, the GI50 in the test with OVCAR-4 is 11.6 µM (inactive); in the test on UACC-257, 9.91 µM (inactive); with SK-MEL-2, 5.14 µM (inactive); in the test with PC-3, 6.01 µM (inactive); in the test with A549, 18.6 µM (inactive); in the test on LOX IMVI it was 1.53 µM (inactive). Moreover, the GI50 in the test on SW-620 is 2.26 µM (inactive); in the test with HT-29 it was 6.15 µM (inactive); in the test on MOLT-4, 2 µM (inactive); with U-251, 10.5 µM (inactive); in the test with OVCAR-3, 2.69 µM (inactive); in the test with IGROV-1 it was 3.13 µM (inactive). Besides, the GI50 in the test on EKVX is 9.75 µM (inactive).

With `CC(C)(C)c1cc2c(O)c(c1)C(c1ccccc1)c1cc(C(C)(C)C)cc(c1O)Cc1cc(C(C)(C)C)cc(c1O)C(c1ccccc1)c1cc(C(C)(C)C)cc(c1O)C2` (stereo not given), the GI50 with SF-295 is > 100 µM (inactive); in the test with SNB-19, > 100 µM (inactive); with MDA-MB-435, > 100 µM (inactive); in the test on HCT-116, > 100 µM (inactive); in the test with HL-60, 28.7 µM (inactive); in the test on OVCAR-8, > 100 µM (inactive). In addition, the GI50 in the test with OVCAR-4, with UACC-257, in the test on SK-MEL-2, in the test on PC-3, in the test on A549 and in the test with LOX IMVI was > 100 µM (inactive) in each case. Moreover, the GI50 in the test with SW-620, in the test on HT-29, in the test with MOLT-4, in the test on U-251, in the test on OVCAR-3 and in the test with IGROV-1 was > 100 µM (inactive) throughout. The GI50 in the test with EKVX is > 100 µM (inactive).

In the case of `CO/C(N)=C(C#N)/N=C/c1ccc2ccccc2c1`, the GI50 was 33.2 µM (inactive) with SF-295; 7.1 µM (inactive) in the test on MDA-MB-435; 76.2 µM (inactive) in the test with HCT-116; 3.61 µM (inactive) in the test on HL-60; 72.3 µM (inactive) in the test on OVCAR-8; 78.9 µM (inactive) in the test on SNB-75. Also, the GI50 with UACC-257 is 7.52 µM (inactive); in the test on SK-MEL-2 it was 31.1 µM (inactive); in the test with PC-3, 19.9 µM (inactive); in the test with A549 it was 77.6 µM (inactive); with LOX IMVI, 33.2 µM (inactive); with SW-620, > 100 µM (inactive). The GI50 with HT-29 is 18.5 µM (inactive); in the test with MOLT-4, 30.6 µM (inactive); with U-251, 30.8 µM (inactive); with OVCAR-3, 24.2 µM (inactive); in the test with IGROV-1, 43.6 µM (inactive); in the test on EKVX, 64.3 µM (inactive).

As for `COc1cc2c(cc1Cc1c(F)cccc1Cl)nc(-c1c(F)cccc1Cl)n2Cc1c(F)cccc1Cl`, the GI50 in the test with SF-295 is 14 µM (inactive); in the test on SNB-19 it was 33.2 µM (inactive); in the test on MDA-MB-435, 33.1 µM (inactive); in the test with HCT-116, 20 µM (inactive); in the test on HL-60, 78.5 µM (inactive); in the test with OVCAR-8 it was 36.3 µM (inactive). In addition, the GI50 with OVCAR-4 is 18.6 µM (inactive); with SNB-75, 24.7 µM (inactive); in the test on UACC-257, 22.5 µM (inactive); in the test with SK-MEL-2, 12.6 µM (inactive); in the test with PC-3, 10.7 µM (inactive); in the test on A549 it was 20.7 µM (inactive). For the same molecule, the GI50 with HT-29 is 16.5 µM (inactive); in the test with MOLT-4, 36 µM (inactive); in the test on U-251, 35.2 µM (inactive); in the test with OVCAR-3, 11.6 µM (inactive); with IGROV-1 it was 32.4 µM (inactive); with EKVX, 12.6 µM (inactive).

Take `O=c1[nH]c(=O)c2c3n(cc2[nH]1)CCCCC3`: the GI50 in the test on SF-295, with SNB-19, in the test with MDA-MB-435, with HCT-116, with HL-60 and in the test on OVCAR-8 was > 100 µM (inactive) each time. Moreover, the GI50 in the test with OVCAR-4, with SNB-75, with UACC-257, in the test with PC-3, in the test with A549 and with LOX IMVI was > 100 µM (inactive) each time. Further, the GI50 in the test with HT-29, in the test on MOLT-4, in the test on U-251, in the test on IGROV-1 and with EKVX was > 100 µM (inactive) in each case.

Regarding `CC(C)(C)OC(=O)N1[C@@H]2Cc3ccc(N)cc3[C@@]1(C)c1ccccc12`, the GI50 in the test on SF-295 is 28.1 µM (inactive); in the test on SNB-19 it was 44.1 µM (inactive); in the test on MDA-MB-435 it was 16.8 µM (inactive); with HCT-116 it was 18.7 µM (inactive); in the test with HL-60, 20.1 µM (inactive); in the test with OVCAR-4, 29.8 µM (inactive). The GI50 was 27.2 µM (inactive) with UACC-257; 20 µM (inactive) with SK-MEL-2; 29.9 µM (inactive) in the test with PC-3; 35.6 µM (inactive) in the test on A549; 19.6 µM (inactive) in the test on LOX IMVI; 29.7 µM (inactive) with SW-620. In addition, the GI50 was 21.6 µM (inactive) in the test with HT-29; 19 µM (inactive) in the test on MOLT-4; 17 µM (inactive) in the test on U-251; 20.8 µM (inactive) in the test on OVCAR-3; 46.7 µM (inactive) in the test on IGROV-1; 38.3 µM (inactive) with EKVX.

Take `CC(=O)n1[nH]c(=O)n(-c2ccccc2)c1=O`: the GI50 with SF-295, with SNB-19, in the test on MDA-MB-435, in the test with HCT-116, in the test with HL-60 and with OVCAR-8 was > 100 µM (inactive) each time. Further, the GI50 in the test with OVCAR-4, in the test with UACC-257, with SK-MEL-2, with PC-3, with A549 and in the test with LOX IMVI was > 100 µM (inactive) each time. Further, the GI50 in the test on SW-620, in the test with HT-29, with MOLT-4, with U-251, with OVCAR-3 and with IGROV-1 was > 100 µM (inactive) each time. Besides, the GI50 in the test with EKVX is > 100 µM (inactive).

With `CCOC(=O)c1nc2cc(C(F)(F)F)ccc2nc1Nc1cc(OC)c(OC)c(OC)c1`, the GI50 with SF-295, with SNB-19, in the test on MDA-MB-435, with HCT-116, in the test on HL-60 and with OVCAR-8 was > 100 µM (inactive) each time. Further, the GI50 in the test with SNB-75, in the test on UACC-257, in the test with PC-3, with A549, in the test with LOX IMVI and in the test with SW-620 was > 100 µM (inactive) in each case. The GI50 with HT-29, in the test on MOLT-4, in the test with U-251, with OVCAR-3, in the test with IGROV-1 and in the test on EKVX was > 100 µM (inactive) each time.

As to `CC(C)c1ccc(NC(=S)NC(=O)c2ccccc2)cc1`, the GI50 in the test on SF-295 is 14.1 µM (inactive); in the test on SNB-19, 48.4 µM (inactive); with MDA-MB-435, 13.8 µM (inactive); with HCT-116, 22.2 µM (inactive); with HL-60 it was 3.82 µM (inactive); in the test with OVCAR-8 it was 32.3 µM (inactive). Also, the GI50 was 16.9 µM (inactive) in the test on OVCAR-4; 14.8 µM (inactive) in the test on UACC-257; 20 µM (inactive) in the test on SK-MEL-2; 36.5 µM (inactive) in the test on PC-3; 30.8 µM (inactive) with A549; 15.3 µM (inactive) with LOX IMVI. In addition, the GI50 is 22.3 µM (inactive) with SW-620; 10.4 µM (inactive) in the test on HT-29; 13.1 µM (inactive) in the test on MOLT-4; 26.9 µM (inactive) in the test on U-251; 18.1 µM (inactive) in the test on OVCAR-3; 25.4 µM (inactive) in the test with IGROV-1. Besides, the GI50 with EKVX was 30.8 µM (inactive).

As to `CN(C)CCNc1ncnc2nc(-c3ccccc3)c(-c3ccccc3)nc12`, the GI50 was > 100 µM (inactive) with MDA-MB-435; > 100 µM (inactive) with HCT-116; > 100 µM (inactive) in the test on HL-60; > 100 µM (inactive) in the test with OVCAR-8; 87.7 µM (inactive) in the test with SNB-75; > 100 µM (inactive) with UACC-257. Also, the GI50 with SK-MEL-2, in the test on PC-3, with A549, with LOX IMVI, with SW-620 and with HT-29 was > 100 µM (inactive) in each case. Further, the GI50 in the test on MOLT-4 was 0.094 µM (active); in the test on U-251, > 100 µM (inactive); with OVCAR-3, > 100 µM (inactive); with IGROV-1 it was > 100 µM (inactive); in the test with EKVX it was > 100 µM (inactive).

Source of the values: ChEMBL document CHEMBL1201862, “PubChem BioAssay data set” (2004).
